The text below walks through data of patent US20240199634A1, “CYCLIC COMPOUNDS AND METHODS OF USING SAME” (SCHRÖDINGER, INC., priority 2021, published 2024).

The structures appear in SMILES notation. pIC50: −log10 of the molar value. Where only a bound is given, the exact number is not on record here.

This test deals with T1, Full length human CDC7 protein co-expressed with DBF4 (Homo sapiens, UniProt O00311).
T1 construct: Full length human CDC7 protein co-expressed with DBF4; purchased SignalChem (China)
T1 sequence (O00311 whole entry): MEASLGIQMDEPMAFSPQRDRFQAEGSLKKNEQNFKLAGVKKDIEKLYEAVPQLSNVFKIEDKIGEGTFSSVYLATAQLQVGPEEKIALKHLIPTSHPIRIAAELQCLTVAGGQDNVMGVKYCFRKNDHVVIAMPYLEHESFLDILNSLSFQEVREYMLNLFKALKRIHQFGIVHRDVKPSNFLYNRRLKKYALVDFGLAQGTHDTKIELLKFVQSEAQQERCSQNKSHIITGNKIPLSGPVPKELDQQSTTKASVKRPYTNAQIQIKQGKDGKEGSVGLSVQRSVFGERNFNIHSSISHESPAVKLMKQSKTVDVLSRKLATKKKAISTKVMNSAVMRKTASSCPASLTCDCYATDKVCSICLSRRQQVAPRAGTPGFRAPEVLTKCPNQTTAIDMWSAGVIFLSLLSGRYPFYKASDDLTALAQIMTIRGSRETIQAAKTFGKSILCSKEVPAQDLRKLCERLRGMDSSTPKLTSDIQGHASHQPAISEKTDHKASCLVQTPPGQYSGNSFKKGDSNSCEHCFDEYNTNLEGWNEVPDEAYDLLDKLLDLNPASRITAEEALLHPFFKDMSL
T1 sequence (Q9UBU7 whole entry partner): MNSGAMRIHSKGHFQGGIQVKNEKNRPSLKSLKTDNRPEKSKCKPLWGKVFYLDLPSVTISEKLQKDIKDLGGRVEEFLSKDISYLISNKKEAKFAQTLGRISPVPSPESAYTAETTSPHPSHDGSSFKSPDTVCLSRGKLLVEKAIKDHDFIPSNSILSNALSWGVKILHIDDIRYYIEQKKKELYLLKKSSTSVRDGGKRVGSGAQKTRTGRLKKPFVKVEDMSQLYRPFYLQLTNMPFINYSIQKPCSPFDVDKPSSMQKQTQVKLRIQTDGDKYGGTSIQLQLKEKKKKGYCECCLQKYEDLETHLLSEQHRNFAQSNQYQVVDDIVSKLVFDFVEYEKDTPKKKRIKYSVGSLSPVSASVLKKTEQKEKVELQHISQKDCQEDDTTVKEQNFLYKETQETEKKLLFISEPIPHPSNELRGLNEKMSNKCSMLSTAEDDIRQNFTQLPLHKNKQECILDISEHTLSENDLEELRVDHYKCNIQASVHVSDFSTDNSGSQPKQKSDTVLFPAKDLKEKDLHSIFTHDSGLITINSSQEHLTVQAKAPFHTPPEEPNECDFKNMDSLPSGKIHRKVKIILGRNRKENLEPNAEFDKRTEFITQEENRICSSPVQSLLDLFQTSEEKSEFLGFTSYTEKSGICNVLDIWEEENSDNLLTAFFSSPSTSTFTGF
In words: CDC7 Kinase Biochemical Assay (ADP-Glo, PDKtide substrate). To be noted: 0.1 nM CDC7/DBF4, 1 μM ATP, 10 μM PDKtide, 4 h reaction. As to the method: CDC7 Kinase Biochemical Assay PROTOCOL:
Full length human CDC7 protein co-expressed with DBF4 was purchased from SignalChem (China). CDC7 kinase activity was determined with PDKtide (SignalChem) as a substrate and by measuring ADP production using the ADP-Glo™ Kinase Assay kit (Promega) following the manufacturer's instructions. The kinase reaction was performed using the following conditions: Buffer: 40 mM Tris pH 7.5, 20 mM MgCl2, 0.1 mg/mL BSA and 50 μM DTT. Final reaction mix contained 0.1 nM CDC7/DBF4, 1 μM ATP and 10 μM PDKtide. The kinase reaction time was 4 h. The ADP-Glo signal was measured using an EnVision plate reader (PerkinELmer).
Percent inhibition of CDC7 kinase activity was calculated based on the following formula:
[formula] • SSample: the signal of compounds • SHigh Ctrl: the signal of high control (DMSO) • SLow Ctrl: the signal of low control (positive control CDC7 inhibitor)
As for `CCC1(O)COCc2c1[nH]c(=O)c1sc(-c3cn[nH]c3)cc21` (single isomer, unassigned) [Compound 19], the negative logarithm of the IC50 (pIC50) was < 8.00.
Under `Cc1cc(-c2cc3c4c([nH]c(=O)c3s2)C(O)(C(C)(C)C)COC4)ccn1` (single isomer, unassigned) [Compound 61] stands ≥ 9.00; under `CC(F)(F)CC1(O)COCc2c1[nH]c(=O)c1sc(-c3cn[nH]c3)cc21` (centres unmarked) [Compound 86, 4-(2,2-difluoropropyl)-4-hydroxy-8-(1H-pyrazol-4-yl)-1,3,4,5-tetrahydro-6H-pyrano[4,3-b]thieno[3,2-d]pyridin-6-one], ≥ 9.00.
Under `Cc1n[nH]cc1-c1cc2c3c([nH]c(=O)c2s1)C(O)(C(C)C)COC3` (single isomer, unassigned) [Compound 25] stands 8.00 to 9.00; under `CC[C@H](C)[C@]1(O)COCc2c1[nH]c(=O)c1sc(-c3cn[nH]c3)cc21` (single isomer, unassigned) [Compound 77], ≥ 9.00; under `CC(C)C1(O)CCCc2c1[nH]c(=O)c1sc(-c3cn[nH]c3)cc21` (single isomer, unassigned) [Compound 87], ≥ 9.00.
As to `CCC(C)C1(O)COCc2c1[nH]c(=O)c1sc(-c3cn[nH]c3)cc21` (single isomer, unassigned) [Compound 74], the negative-log IC50 (pIC50) is < 8.00.
Then `O=c1[nH]c2c(c3cc(-c4cn[nH]c4)sc13)CCCC2` [Compound 1, 2-(1H-pyrazol-4-yl)-6,7,8,9-tetrahydrothieno[2,3-c]quinolin-4(5H)-one], with ≥ 9.00; and `COC1(C)CC(F)(F)Cc2c1[nH]c(=O)c1sc(-c3cn[nH]c3)cc21` (single isomer, unassigned) [Compound 53], with ≥ 9.00; and `O=c1[nH]c2c(c3cc(-c4cn[nH]c4)sc13)COCC2(O)C(F)F` (single isomer, unassigned) [Compound 43], with 8.00 to 9.00.
Then `CC(C)(C)C1(O)COCc2c1[nH]c(=O)c1sc(-c3c[nH]nc3F)cc21` (single isomer, unassigned) [Compound 65], with < 8.00; and `Cn1nccc1-c1cc2c3c([nH]c(=O)c2s1)C(O)(C(F)(F)F)COC3` (single isomer, unassigned) [Compound 31], with 8.00 to 9.00.
Under `COC1(C)CCCc2[nH]c(=O)c3sc(-c4cn[nH]c4)cc3c21` (single isomer, unassigned) [Compound 38] stands 8.00 to 9.00; under `CC(C)C1(O)COCc2c1[nH]c(=O)c1sc(-c3c[nH]nc3F)cc21` (single isomer, unassigned) [Compound 26], 8.00 to 9.00; under `CC(=O)N1Cc2c([nH]c(=O)c3sc(-c4cn[nH]c4)cc23)C(O)(C(C)(C)C)C1` (centres unmarked) [Compound 94, 2-acetyl-4-tert-butyl-4-hydroxy-8-(1H-pyrazol-4-yl)-3,5-dihydro-1H-thieno[2,3-c][1,6]naphthyridin-6-one], ≥ 9.00.
Turning to `CC1(CO)OCCc2c1[nH]c(=O)c1sc(-c3cn[nH]c3)cc21` (single isomer, unassigned) [Compound 34], the pIC50 is < 8.00.
Under `CC(F)(F)C1(O)COCc2c1[nH]c(=O)c1sc(-c3cn[nH]c3)cc21` (single isomer, unassigned) [Compound 95] stands 8.00 to 9.00.
For `O=c1[nH]c2c(c3cc(-c4cn[nH]c4)sc13)CCC[C@H]2N1CCC(F)(F)C1` (single isomer, unassigned) [Compound 5], the pIC50 is ≥ 9.00.
For the molecule `CC(C)(C)C1(O)COCc2c1[nH]c(=O)c1sc(-c3ccnnc3)cc21` (single isomer, unassigned) [Compound 67], the negative-log IC50 (pIC50) was ≥ 9.00.
Then `Cc1cc(-c2cc3c4c([nH]c(=O)c3s2)C(O)(C(C)(C)C)COC4)ccn1` (single isomer, unassigned) [Compound 62], with < 8.00; and `O=c1[nH]c2c(c3cc(-c4cn[nH]c4)sc13)COCC2(O)C1CCCC1` (single isomer, unassigned) [Compound 79], with 8.00 to 9.00; and `O=c1[nH]c2c(c3c(F)c(-c4cn[nH]c4)sc13)CC(F)(F)CC2` [Compound 2, 1,8,8-trifluoro-2-(1H-pyrazol-4-yl)-5,6,7,9-tetrahydrothieno[2,3-c]quinolin-4-one], with ≥ 9.00.
Then `O=c1[nH]c2c(c3cc(-c4cn[nH]c4)sc13)COCC2(O)C(F)(F)F` (single isomer, unassigned) [Compound 29], with 8.00 to 9.00; and `CC1(CO)OCCc2c1[nH]c(=O)c1sc(-c3cn[nH]c3)cc21` (single isomer, unassigned) [Compound 35], with ≥ 9.00.
Under `CN(C)C1(C)COCc2c1[nH]c(=O)c1sc(-c3cn[nH]c3)cc21` (single isomer, unassigned) [Compound 82] stands 8.00 to 9.00; under `CCC(C)C1(O)COCc2c1[nH]c(=O)c1sc(-c3cn[nH]c3)cc21` (single isomer, unassigned) [Compound 75], < 8.00; under `CNC1(C)COCc2c1[nH]c(=O)c1sc(-c3cn[nH]c3)cc21` (centres unmarked) [Compound 84, 4-methyl-4-(methylamino)-8-(1H-pyrazol-4-yl)-1,3,4,5-tetrahydro-6H-pyrano[4,3-b]thieno[3,2-d]pyridin-6-one], ≥ 9.00.
In the case of `O=c1[nH]c2c(c3cc(-c4cn[nH]c4)sc13)CCC[C@@H]2N1CCC(F)(F)C1` (single isomer, unassigned) [Compound 6], the negative-log IC50 (pIC50) was < 8.00.
Under `Cc1n[nH]cc1-c1cc2c3c([nH]c(=O)c2s1)C(O)(C(C)C)COC3` (single isomer, unassigned) [Compound 24] stands ≥ 9.00.
Turning to `COCC1(O)CC(F)(F)Cc2c1[nH]c(=O)c1sc(-c3cn[nH]c3)cc21` (single isomer, unassigned) [Compound 48], the negative-log IC50 (pIC50) is < 8.00.
Molecule `CC(C)(O)C1(C)OCCc2c1[nH]c(=O)c1sc(-c3cn[nH]c3)cc21` (single isomer, unassigned) [Compound 57] showed a pIC50 of 8.00 to 9.00.
Under `O=c1[nH]c2c(c3cc(-c4cn[nH]c4)sc13)CC(F)(F)C[C@H]2N1CCC1` (single isomer, unassigned) [Compound 12] stands 8.00 to 9.00; under `CC(C)(C)[C@]1(O)COCc2c1[nH]c(=O)c1sc(-c3ccncc3)cc21` (single isomer, unassigned) [Compound 23], < 8.00.
In the case of `CC(C)(C)C1(O)COCc2c1[nH]c(=O)c1sc(-c3ccnnc3)cc21` (single isomer, unassigned) [Compound 68], the negative logarithm of the IC50 (pIC50) was < 8.00.
Then `CC(C)C1(O)COCc2c1[nH]c(=O)c1sc(-c3ccns3)cc21` (single isomer, unassigned) [Compound 47], with < 8.00.
Consider `CC(C)(C)C1(O)COCc2c1[nH]c(=O)c1sc(-c3c[nH]nc3F)cc21` (single isomer, unassigned) [Compound 66], for which the pIC50 was ≥ 9.00.
Under `COC1(C)CCCc2[nH]c(=O)c3sc(-c4cn[nH]c4)cc3c21` (single isomer, unassigned) [Compound 39] stands ≥ 9.00; under `CCC(C)(C)C1(O)COCc2c1[nH]c(=O)c1sc(-c3cn[nH]c3)cc21` (single isomer, unassigned) [Compound 80], < 8.00; under `O=c1[nH]c2c(c3cc(-c4cn[nH]c4)sc13)COCC2(O)C1CCCC1` (single isomer, unassigned) [Compound 78], ≥ 9.00.
`CC1(N2CCCC2)COCc2c1[nH]c(=O)c1sc(-c3cn[nH]c3)cc21` (centres unmarked) [Compound 71, 4-methyl-8-(1H-pyrazol-4-yl)-4-(pyrrolidin-1-yl)-1,3,4,5-tetrahydro-6H-pyrano[4,3-b]thieno[3,2-d]pyridin-6-one]: the negative logarithm of the IC50 (pIC50) is < 8.00.
Regarding `COCC1(O)CC(F)(F)Cc2c1[nH]c(=O)c1sc(-c3cn[nH]c3)cc21` (single isomer, unassigned) [Compound 49], the negative-log IC50 (pIC50) was ≥ 9.00.
Under `CC#CC1(O)COCc2c1[nH]c(=O)c1sc(-c3cn[nH]c3)cc21` (single isomer, unassigned) [Compound 72] stands 8.00 to 9.00.
Then `CC1(O)CC(F)(F)Cc2c1[nH]c(=O)c1sc(-c3cn[nH]c3)cc21` (single isomer, unassigned) [Compound 54], with ≥ 9.00; and `CC(C)(O)C1(C)OCCc2c1[nH]c(=O)c1sc(-c3cn[nH]c3)cc21` (single isomer, unassigned) [Compound 56], with < 8.00.
Consider `CC(C)(C)C1(O)COCc2c1[nH]c(=O)c1sc(-c3ncncc3Cl)cc21` (single isomer, unassigned) [Compound 63], for which the negative logarithm of the IC50 (pIC50) was ≥ 9.00.
Molecule `COC1(C)CC(F)(F)Cc2c1[nH]c(=O)c1sc(-c3cn[nH]c3)cc21` (single isomer, unassigned) [Compound 52] gave a negative logarithm of the IC50 (pIC50) of 8.00 to 9.00.
For `CC(C)(C)C1(O)COCc2c1[nH]c(=O)c1sc(-c3ccncc3F)cc21` (single isomer, unassigned) [Compound 60], the pIC50 is 8.00 to 9.00.
Then `CO[C@@H]1COCc2c1[nH]c(=O)c1sc(-c3cn[nH]c3)cc21` (single isomer, unassigned) [Compound 11], with < 8.00; and `CC(C)C1(O)COCc2c1[nH]c(=O)c1sc(-c3ccncc3)cc21` (single isomer, unassigned) [Compound 45], with < 8.00.
In the case of `C[C@@]1(CO)CC(F)(F)Cc2c1[nH]c(=O)c1sc(-c3cn[nH]c3)cc21` (single isomer, unassigned) [Compound 15], the pIC50 is ≥ 9.00.
